These are literature values, as cited in patent US20050114109A1, “STRUCTURE OF INTEGRIN ALPHA V-beta 3 EXTRACELLULAR DOMAIN COMPLEXED WITH LIGAND” (priority 2002, published 2005).

What is called IC50 is the point on the concentration scale where inhibition reaches its midpoint.

The series concerns native or extracellular αVβ3. To be noted: physiologic ligands, from Mehta et al. 1998 and Dechantsreiter et al. 1999, read-out: IC50, competes with binding of physiologic ligands to αVβ3.
Sequence of native or extracellular αVβ3 (P06756 31-889 limits assumed): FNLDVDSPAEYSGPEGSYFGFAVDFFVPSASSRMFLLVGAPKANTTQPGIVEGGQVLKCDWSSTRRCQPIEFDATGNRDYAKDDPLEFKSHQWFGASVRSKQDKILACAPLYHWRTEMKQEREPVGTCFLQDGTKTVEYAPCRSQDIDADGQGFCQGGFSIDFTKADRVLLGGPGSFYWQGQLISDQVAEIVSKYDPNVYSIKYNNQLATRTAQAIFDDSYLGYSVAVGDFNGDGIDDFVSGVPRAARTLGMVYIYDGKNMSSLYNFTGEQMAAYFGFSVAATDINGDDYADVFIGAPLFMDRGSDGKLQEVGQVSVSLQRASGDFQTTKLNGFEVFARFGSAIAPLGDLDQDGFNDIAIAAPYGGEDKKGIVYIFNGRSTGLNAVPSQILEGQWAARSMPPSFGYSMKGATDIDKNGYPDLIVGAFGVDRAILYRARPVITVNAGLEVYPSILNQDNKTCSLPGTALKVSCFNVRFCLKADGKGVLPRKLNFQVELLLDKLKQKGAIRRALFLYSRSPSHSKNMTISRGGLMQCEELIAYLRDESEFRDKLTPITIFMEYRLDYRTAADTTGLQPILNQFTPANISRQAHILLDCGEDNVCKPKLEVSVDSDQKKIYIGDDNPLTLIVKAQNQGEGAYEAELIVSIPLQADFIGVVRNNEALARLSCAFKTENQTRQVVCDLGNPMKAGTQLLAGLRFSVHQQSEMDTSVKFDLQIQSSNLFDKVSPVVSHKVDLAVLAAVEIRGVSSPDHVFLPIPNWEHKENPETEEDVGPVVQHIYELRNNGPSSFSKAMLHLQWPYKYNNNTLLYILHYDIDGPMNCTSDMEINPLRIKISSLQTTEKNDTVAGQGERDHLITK
Sequence of native or extracellular αVβ3 (P06756 891-987 limits assumed): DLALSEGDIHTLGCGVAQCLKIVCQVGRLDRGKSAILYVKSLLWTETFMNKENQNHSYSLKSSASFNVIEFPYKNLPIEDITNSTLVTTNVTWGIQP
Sequence of native or extracellular αVβ3 (P05106 27-625 limits assumed, further chain): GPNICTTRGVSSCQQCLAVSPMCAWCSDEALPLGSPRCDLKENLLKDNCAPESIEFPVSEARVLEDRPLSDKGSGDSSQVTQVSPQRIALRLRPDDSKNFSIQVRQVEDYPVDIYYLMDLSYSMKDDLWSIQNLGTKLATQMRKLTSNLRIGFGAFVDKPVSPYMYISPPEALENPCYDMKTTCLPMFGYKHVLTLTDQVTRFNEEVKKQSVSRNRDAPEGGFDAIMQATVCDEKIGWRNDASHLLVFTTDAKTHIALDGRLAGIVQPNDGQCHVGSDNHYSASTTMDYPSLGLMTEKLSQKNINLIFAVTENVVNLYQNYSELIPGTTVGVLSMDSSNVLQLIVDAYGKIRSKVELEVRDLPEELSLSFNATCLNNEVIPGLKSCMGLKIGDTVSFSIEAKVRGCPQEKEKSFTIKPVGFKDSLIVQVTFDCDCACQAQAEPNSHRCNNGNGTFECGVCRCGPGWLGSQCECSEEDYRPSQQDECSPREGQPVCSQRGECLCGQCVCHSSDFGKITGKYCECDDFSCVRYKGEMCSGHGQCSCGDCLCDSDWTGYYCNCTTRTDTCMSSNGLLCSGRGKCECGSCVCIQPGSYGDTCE

As to “Arg-Gly-Asp-(D-Phe)-(N-methyl-Val) [Cyclo(RGDf-N-Me-V), cyclic pentapeptide ligand of αVβ3, in clinical trials as an anti-angiogenic therapeutic]”, the IC50 was 0.5 to 3 nM.
